Measurements: PubChem BioAssay (NCI)
“And” between values parts separate entries of the source, which are not always exact repeats. Equal entries are not always repeated.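 Step 1: Grow cells in 96-well plates. Step 2: Expose to compound for 48 hours at 5 concentrations. Step 3: Interpolate endpoints linearly; if unreached, use highest concentration. At the GI50, growth is halved. TGI: concentration producing complete growth inhibition.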

Experiments:
Assay in all cases: DTP human tumour cell line panel, 48 h
A498 renal = system: A498 renal
EKVX NSCLC = system: EKVX NSCLC
HCC-2998 colon = system: HCC-2998 colon
KM12 colon = system: KM12 colon
MCF7 breast = system: MCF7 breast
NCI-H23 lung = system: NCI-H23 lung
PC-3 prostate = system: PC-3 prostate
SF-539 CNS = system: SF-539 CNS
SK-MEL-28 melanoma = system: SK-MEL-28 melanoma
SW-620 colon = system: SW-620 colon

## COc1cc(CNCCCN2C(=O)c3ccc4c5c(ccc(c35)C2=O)C(=O)N(CCCNCc2cc(OC)c(OC)c(OC)c2)C4=O)cc(OC)c1OC
A498 renal
  GI50: 627 nM
  TGI: 1.41 µM
EKVX NSCLC
  GI50: 0.543 µM
  TGI: 1.35 µM
HCC-2998 colon
  GI50: 0.363 µM
  TGI: 0.915 µM
KM12 colon
  GI50: 238 nM
  TGI: 0.834 µM
MCF7 breast
  GI50: 0.242 µM
  TGI: 0.643 µM
NCI-H23 lung
  GI50: 0.35 µM
  TGI: 1.22 µM
PC-3 prostate
  GI50: 0.387 µM
  TGI: 1.57 µM
SF-539 CNS
  GI50: 0.653 µM
  TGI: 1.39 µM
SK-MEL-28 melanoma
  GI50: 841 nM
  TGI: 1.57 µM
SW-620 colon
  GI50: 0.203 µM
  TGI: 0.785 µM

## COc1ccncc1C#Cc1cncc(C(=O)Nc2ccc(CN3CCN(C)CC3)c(C(F)(F)F)c2)c1
A498 renal
  GI50: 17400 nM
  TGI: 79.5 µM
EKVX NSCLC
  GI50: 24.7 µM
  TGI: > 100 µM
HCC-2998 colon
  GI50: 24.8 µM
  TGI: > 100 µM
KM12 colon
  GI50: 326 nM
  TGI: 64.5 µM
MCF7 breast
  GI50: 11.1 µM
  TGI: 94.6 µM
NCI-H23 lung
  GI50: 16.3 µM
  TGI: > 100 µM
PC-3 prostate
  GI50: 27.3 µM
  TGI: > 100 µM
SF-539 CNS
  GI50: 5.39 µM
  TGI: 66.6 µM
SK-MEL-28 melanoma
  GI50: 13300 nM
  TGI: > 100 µM
SW-620 colon
  GI50: 14.6 µM
  TGI: 64.3 µM

## Cc1ccc(/C=C/c2c(C(=O)/C=C/c3ccc(C(F)(F)F)cc3)c(C)nc3ccccc23)cc1
A498 renal
  GI50: 1770 nM
  TGI: 3.24 µM
EKVX NSCLC
  GI50: 1.53 µM
  TGI: 3.36 µM
HCC-2998 colon
  GI50: 1.48 µM
  TGI: 2.81 µM
KM12 colon
  GI50: 2060 nM
  TGI: 5.03 µM
MCF7 breast
  GI50: 0.557 µM
  TGI: 2.3 µM
NCI-H23 lung
  GI50: 1.29 µM
  TGI: 3.13 µM
PC-3 prostate
  GI50: 1.64 µM
  TGI: 3.68 µM
SF-539 CNS
  GI50: 1.79 µM
  TGI: 3.26 µM
SK-MEL-28 melanoma
  GI50: 1930 nM
  TGI: 3.63 µM
SW-620 colon
  GI50: 1.29 µM
  TGI: 4.38 µM

## NS(=O)(=O)c1ccc(N(/C=C/C(=O)C(F)(F)F)CC(=O)c2ccc(Cl)cc2)cc1
A498 renal
  GI50: > 100000 nM
  TGI: > 100 µM
EKVX NSCLC
  GI50: 54.2 µM
  TGI: > 100 µM
HCC-2998 colon
  GI50: 55.7 µM
  TGI: > 100 µM
KM12 colon
  GI50: 24200 nM
  TGI: 73.7 µM
MCF7 breast
  GI50: 15.8 µM
  TGI: 49.7 µM
NCI-H23 lung
  GI50: 37.5 µM
  TGI: > 100 µM
PC-3 prostate
  GI50: 26.4 µM
  TGI: 84.1 µM
SF-539 CNS
  GI50: 43.4 µM
  TGI: > 100 µM
SK-MEL-28 melanoma
  GI50: > 100000 nM
  TGI: > 100 µM
SW-620 colon
  GI50: 57 µM
  TGI: > 100 µM

## COc1ccccc1N1CCN(CCCn2c(=O)c3c(OC)nc(C)cc3c(=O)n2-c2ccccc2)CC1
A498 renal
  GI50: > 100000 nM
  TGI: > 100 µM
EKVX NSCLC
  GI50: > 100 µM
  TGI: > 100 µM
HCC-2998 colon
  GI50: > 100 µM
  TGI: > 100 µM
KM12 colon
  GI50: > 100000 nM
  TGI: > 100 µM
MCF7 breast
  GI50: > 100 µM
  TGI: > 100 µM
NCI-H23 lung
  GI50: > 100 µM
  TGI: > 100 µM
PC-3 prostate
  GI50: > 100 µM
  TGI: > 100 µM
SF-539 CNS
  GI50: > 100 µM
  TGI: > 100 µM
SK-MEL-28 melanoma
  GI50: > 100000 nM
  TGI: > 100 µM
SW-620 colon
  GI50: > 100 µM
  TGI: > 100 µM

## COc1cccc2c1C(=O)c1c(O)c3c(c(O)c1C2=O)CC(O)(/C(C)=N/NC(=O)CCC(=O)N/N=C(\C)C1(O)Cc2c(O)c4c(c(O)c2C(OC2CC(N)C(O)C(C)O2)C1)C(=O)c1c(OC)cccc1C4=O)CC3OC1CC(N)C(O)C(C)O1 (stereo not given)
A498 renal
  GI50: 161 nM
  TGI: 0.939 µM
EKVX NSCLC
  GI50: 1.12 µM
  TGI: 22.1 µM
HCC-2998 colon
  GI50: 0.508 µM
  TGI: 1.46 µM
KM12 colon
  GI50: 755 nM
  TGI: > 14.5 µM
MCF7 breast
  GI50: 0.0676 µM
  TGI: 7.41 µM
NCI-H23 lung
  GI50: 0.186 µM
  TGI: 1.43 µM
PC-3 prostate
  GI50: 0.958 µM
  TGI: > 21.2 µM
SF-539 CNS
  GI50: 0.179 µM
  TGI: 0.859 µM
SK-MEL-28 melanoma
  GI50: 371 nM
  TGI: 1.35 µM
SW-620 colon
  GI50: 0.193 µM
  TGI: 5.36 µM

## O=C(c1c(F)ccc(NS(=O)(=O)N2CC[C@@H](F)C2)c1F)c1c[nH]c2ncc(-c3cnc(C4CC4)nc3)cc12
A498 renal
  GI50: 3950 nM and 3770 nM
  TGI: > 10 µM and 23.1 µM
EKVX NSCLC
  GI50: > 10 µM and 9.15 µM
  TGI: > 10 µM and 51.5 µM
HCC-2998 colon
  GI50: > 10 µM and 12.5 µM
  TGI: > 10 µM and 29.8 µM
KM12 colon
  GI50: 8250 nM and 9660 nM
  TGI: > 10 µM and 33.6 µM
MCF7 breast
  GI50: > 9.13 µM and 10.1 µM
  TGI: > 10 µM and 44.5 µM
NCI-H23 lung
  GI50: > 10 µM and 10.2 µM
  TGI: > 10 µM and 41.1 µM
PC-3 prostate
  GI50: 7.03 µM and 6.82 µM
  TGI: > 10 µM and 70 µM
SF-539 CNS
  GI50: 6.74 µM and 6.17 µM
  TGI: > 10 µM and 23.7 µM
SK-MEL-28 melanoma
  GI50: 3.75 nM and < 10 nM
  TGI: 0.194 µM and 0.599 µM
SW-620 colon
  GI50: > 7.76 µM and 10.9 µM
  TGI: > 10 µM and 35 µM

## CC(=O)OC12c3ccccc3-c3ccccc3C1C1C(=O)N(C)C(=O)C12Cl (stereo not given)
A498 renal
  TGI: > 10 µM
EKVX NSCLC
  TGI: > 10 µM
HCC-2998 colon
  TGI: > 10 µM
KM12 colon
  TGI: > 10 µM
MCF7 breast
  TGI: > 10 µM
NCI-H23 lung
  TGI: > 10 µM
PC-3 prostate
  TGI: > 10 µM
SF-539 CNS
  TGI: > 10 µM
SK-MEL-28 melanoma
  TGI: > 10 µM
SW-620 colon
  TGI: > 10 µM

## C=CC(=O)N1CCC(C2CCNc3c(C(N)=O)c(-c4ccc(Oc5ccccc5)cc4)nn32)CC1 (stereo not given)
A498 renal
  GI50: 2330 nM
  TGI: 7.19 µM
EKVX NSCLC
  GI50: 3.49 µM
  TGI: 42 µM
HCC-2998 colon
  GI50: 14.8 µM
  TGI: 28.6 µM
KM12 colon
  GI50: 22900 nM
  TGI: 67 µM
MCF7 breast
  GI50: 12.3 µM
  TGI: 59.4 µM
NCI-H23 lung
  GI50: 16.5 µM
  TGI: 39.9 µM
PC-3 prostate
  GI50: 22 µM
  TGI: 69.6 µM
SF-539 CNS
  GI50: 13.5 µM
  TGI: 43 µM
SK-MEL-28 melanoma
  GI50: 18700 nM
  TGI: 45.1 µM
SW-620 colon
  GI50: 31.8 µM
  TGI: > 100 µM

## C[C@H]1Oc2cc(cnc2N)-c2c(nn(C)c2C#N)CN(C)C(=O)c2ccc(F)cc21
A498 renal
  GI50: 452 nM
  TGI: > 30.6 µM
EKVX NSCLC
  GI50: 16 µM
  TGI: > 100 µM
HCC-2998 colon
  GI50: > 89 µM
  TGI: > 100 µM
KM12 colon
  GI50: 275 nM
  TGI: > 100 µM
MCF7 breast
  GI50: 5.42 µM
  TGI: > 100 µM
NCI-H23 lung
  GI50: 59.1 µM
  TGI: > 100 µM
PC-3 prostate
  GI50: > 100 µM
  TGI: > 100 µM
SF-539 CNS
  GI50: 59.5 µM
  TGI: > 100 µM
SK-MEL-28 melanoma
  GI50: 50300 nM
  TGI: > 100 µM
SW-620 colon
  GI50: 35.6 µM
  TGI: > 100 µM
